How the values were obtained:
[1] = molecular target: T1, PDE5 partially purified from human platelets (Homo sapiens, UniProt O76074); experiment: PDE5 biochemical enzyme assay ([3H]cGMP hydrolysis); conditions: 100 μM test substance; 1 μM cGMP, Tris pH 7.5, 20 min, 30° C.
T1 construct: PDE5 partially purified from human platelets was used; from tissue; host or cells: human platelets
Source text: (§1) In this example, racemic flosequinan, (R)-(+)-flosequinan, and (S)-(−)-flosequinan were subjected to biochemical enzyme assays to determine their respective percent inhibition of a variety of phosphodiesterases (PDE1-PDE6). The (R)-(+)-flosequinan and (S)-(−)-flosequinan used in this example was resolved by high-performance liquid chromatography (HPLC) as follows. A 5.0 g sample of a racemic mixture of flosequinan was resolved over a 10 cm ID×50 cm L CHIRALCEL OD HPLC column (Chiral Technologies, Exton, Pa.) at 25° C. and with a flow rate of 1.0 ml/minute such that the column pressure was 37 bar. The mobile phase employed was 100% methanol and the detection of the mixture was performed at 270 nm. […] A total of 2.1 g of the (−) enantiomer having an optical purity greater than 99% was produced. A total of 2.3 g of the (+) enantiomer having an optical purity greater than 99% was produced.
PDE5: PDE5 partially purified from human platelets was used. A racemic mixture of flosequinan, and each enantiomer of flosequinan, all at a molar concentration of 100 μM, were independently incubated with 120 μg PDE5 enzyme and 1 μM cGMP containing 0.01 μM [^3H]cGMP in Tris buffer pH 7.5 for 20 minutes at 30° C. The reaction was terminated by boiling for 2 minutes, and the resulting GMP was converted to guanosine by addition of 10 mg/ml snake venom nucleotidase and further incubation at 30° C. for 10 minutes. Unhydrolyzed cGMP was bound to AGI-X2 resin, and the remaining [^3H]guanosine in the aqueous phase was quantitated by scintillation counting.

[2] = system: PDE4 partially purified from human U-937 pronocytic cells; experiment: PDE4 biochemical enzyme assay ([3H]cAMP hydrolysis); conditions: 100 μM test substance; 1 μM cAMP, Tris pH 7.5, 20 min, 30° C.
Source text: as §1
(§2) PDE4: PDE4 partially purified from human U-937 pronocytic cells was used. A racemic mixture of flosequinan, and each enantiomer of flosequinan, all at a molar concentration of 100 μM, were independently incubated with 20 μg PDE4 enzyme and 1 μM cAMP containing 0.01 μM [^3H]cAMP in Tris buffer pH 7.5 for 20 minutes at 30° C. The reaction was terminated by boiling for 2 minutes, and the resulting AMP was converted to adenosine by addition of 10 mg/ml snake venom nucleotidase and further incubation at 30° C. for 10 minutes. Unhydrolyzed cAMP was bound to AGI-X2 resin, and the remaining [^3H]adenosine in the aqueous phase was quantitated by scintillation counting.

[3] = molecular target: T2, PDE2 partially purified from human platelets (Homo sapiens, UniProt O00408); experiment: PDE2 biochemical enzyme assay ([3H]cAMP hydrolysis); conditions: 100 μM test substance; 25 μM cAMP, Tris pH 7.5, 20 min, 30° C.
T2 construct: PDE2 partially purified from human platelets was used; from tissue; host or cells: human platelets
Source text: as §1
as §2, with “PDE2: PDE2 partially” for “PDE4: PDE4 partially”, “human platelets” for “human U-937 pronocytic cells”, “with 23” for “with 20”, “μg PDE2 enzyme, 25” for “μg PDE4 enzyme and 1”, “containing 0.05” for “containing 0.01”

[4] = system: PDE1 partially purified from bovine heart; experiment: PDE1 biochemical enzyme assay ([3H]cAMP hydrolysis); conditions: 100 μM test substance; 1.0 μM [3H]cAMP, calmodulin, Tris pH 7.5, 20 min, 30° C.
Source text: as §1
as §2, with “PDE1: PDE1 partially” for “PDE4: PDE4 partially”, “from bovine heart” for “from human U-937 pronocytic cells”, “with 13” for “with 20”, “μg PDE1 enzyme, 1.0” for “μg PDE4 enzyme and 1 μM cAMP containing 0.01”, “[^3H]cAMP and Cal2/calmodulin” for “[^3H]cAMP”

[5] = molecular target: T3, PDE3 partially purified from human platelets (Homo sapiens, UniProt Q14432); experiment: PDE3 biochemical enzyme assay ([3H]cAMP hydrolysis); conditions: 100 μM test substance; 1 μM cAMP, Tris pH 7.5, 20 min, 30° C.
T3 construct: PDE3 partially purified from human platelets was used; from tissue; host or cells: human platelets
Source text: as §1
PDE3: PDE3 partially purified from human platelets was used. A racemic mixture of flosequinan, and each enantiomer of flosequinan, all at a molar concentration of 100 μM, were independently incubated with 13 μg PDE3 enzyme and 1 μM cAMP containing 0.01 μM [^3H]cAMP in Tris buffer pH 7.5 for 20 minutes at 30° C. […] Unhydrolyzed cAMP was bound to AGI-X2 resin, and the remaining [^3H]adenosine in the aqueous phase was quantitated by scintillation counting.

[6] = molecular target: T4, PDE6 partially purified from bovine retinal rod and activated by trypsin (Bos taurus, UniProt P11541+P23439); experiment: PDE6 biochemical enzyme assay ([3H]cGMP hydrolysis); conditions: 100 μM test substance; 100 μM cGMP, Tris pH 7.5, 20 min, 30° C.
T4 construct: from tissue; host or cells: bovine retinal rod
T4 sequence (P11541 2-856 limits assumed): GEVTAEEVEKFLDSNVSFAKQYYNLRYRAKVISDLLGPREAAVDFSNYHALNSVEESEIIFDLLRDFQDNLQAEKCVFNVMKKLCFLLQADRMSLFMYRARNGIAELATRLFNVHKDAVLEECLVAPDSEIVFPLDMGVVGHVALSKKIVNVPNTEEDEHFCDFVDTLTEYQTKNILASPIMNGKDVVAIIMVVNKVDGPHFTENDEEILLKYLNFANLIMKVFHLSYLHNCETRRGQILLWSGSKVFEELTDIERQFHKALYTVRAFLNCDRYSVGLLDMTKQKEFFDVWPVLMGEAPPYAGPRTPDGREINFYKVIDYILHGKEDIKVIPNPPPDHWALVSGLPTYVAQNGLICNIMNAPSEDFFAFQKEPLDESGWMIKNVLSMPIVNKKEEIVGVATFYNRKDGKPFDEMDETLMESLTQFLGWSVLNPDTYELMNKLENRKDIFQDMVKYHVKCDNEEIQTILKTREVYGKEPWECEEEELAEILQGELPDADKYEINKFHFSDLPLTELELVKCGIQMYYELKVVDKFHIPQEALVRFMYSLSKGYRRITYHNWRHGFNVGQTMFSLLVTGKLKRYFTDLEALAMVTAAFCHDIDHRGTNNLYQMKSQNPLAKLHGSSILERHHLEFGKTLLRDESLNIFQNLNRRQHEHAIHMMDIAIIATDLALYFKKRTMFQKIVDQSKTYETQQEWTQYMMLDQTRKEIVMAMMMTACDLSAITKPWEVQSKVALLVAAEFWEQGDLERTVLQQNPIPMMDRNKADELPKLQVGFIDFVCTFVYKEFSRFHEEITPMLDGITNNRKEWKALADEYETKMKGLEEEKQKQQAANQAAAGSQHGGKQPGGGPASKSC
T4 sequence (P23439 2-850 limits assumed): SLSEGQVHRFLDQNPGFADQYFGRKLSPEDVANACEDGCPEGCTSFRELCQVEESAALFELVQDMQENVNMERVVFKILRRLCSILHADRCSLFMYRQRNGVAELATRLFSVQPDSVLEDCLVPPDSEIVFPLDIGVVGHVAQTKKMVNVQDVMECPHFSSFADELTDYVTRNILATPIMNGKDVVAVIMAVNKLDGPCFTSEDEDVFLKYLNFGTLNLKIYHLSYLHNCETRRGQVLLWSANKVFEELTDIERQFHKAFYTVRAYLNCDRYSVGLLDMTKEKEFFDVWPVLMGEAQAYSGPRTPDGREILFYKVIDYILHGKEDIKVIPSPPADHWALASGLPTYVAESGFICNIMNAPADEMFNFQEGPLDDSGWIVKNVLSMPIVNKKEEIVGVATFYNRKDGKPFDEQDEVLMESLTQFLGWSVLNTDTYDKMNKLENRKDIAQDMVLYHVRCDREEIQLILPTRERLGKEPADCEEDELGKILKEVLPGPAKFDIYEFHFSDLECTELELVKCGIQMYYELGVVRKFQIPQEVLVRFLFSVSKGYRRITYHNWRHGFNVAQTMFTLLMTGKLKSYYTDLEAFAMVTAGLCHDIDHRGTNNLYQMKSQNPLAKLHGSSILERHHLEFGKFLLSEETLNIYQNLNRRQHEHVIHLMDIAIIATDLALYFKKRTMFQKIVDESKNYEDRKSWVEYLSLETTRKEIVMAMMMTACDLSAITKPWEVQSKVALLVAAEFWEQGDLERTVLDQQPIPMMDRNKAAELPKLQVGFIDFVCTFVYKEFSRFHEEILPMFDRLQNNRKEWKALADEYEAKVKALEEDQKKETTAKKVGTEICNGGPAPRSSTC
Source text: as §1
PDE6: PDE6 partially purified from bovine retinal rod and activated by trypsin was used. A racemic mixture of flosequinan, and each enantiomer of flosequinan, all at a molar concentration of 100 μM, were independently incubated with 0.2 μg/ml active PDE6 and 100 μM cGMP containing 0.1 μM [^3H]cGMP in Tris buffer pH 7.5 for 20 minutes at 30° C. […] Unhydrolyzed cGMP was bound to AGI-X2 resin, and [^3H]guanosine remaining in the aqueous phase was quantitated by scintillation counting.

T2 sequence (O00408 whole entry): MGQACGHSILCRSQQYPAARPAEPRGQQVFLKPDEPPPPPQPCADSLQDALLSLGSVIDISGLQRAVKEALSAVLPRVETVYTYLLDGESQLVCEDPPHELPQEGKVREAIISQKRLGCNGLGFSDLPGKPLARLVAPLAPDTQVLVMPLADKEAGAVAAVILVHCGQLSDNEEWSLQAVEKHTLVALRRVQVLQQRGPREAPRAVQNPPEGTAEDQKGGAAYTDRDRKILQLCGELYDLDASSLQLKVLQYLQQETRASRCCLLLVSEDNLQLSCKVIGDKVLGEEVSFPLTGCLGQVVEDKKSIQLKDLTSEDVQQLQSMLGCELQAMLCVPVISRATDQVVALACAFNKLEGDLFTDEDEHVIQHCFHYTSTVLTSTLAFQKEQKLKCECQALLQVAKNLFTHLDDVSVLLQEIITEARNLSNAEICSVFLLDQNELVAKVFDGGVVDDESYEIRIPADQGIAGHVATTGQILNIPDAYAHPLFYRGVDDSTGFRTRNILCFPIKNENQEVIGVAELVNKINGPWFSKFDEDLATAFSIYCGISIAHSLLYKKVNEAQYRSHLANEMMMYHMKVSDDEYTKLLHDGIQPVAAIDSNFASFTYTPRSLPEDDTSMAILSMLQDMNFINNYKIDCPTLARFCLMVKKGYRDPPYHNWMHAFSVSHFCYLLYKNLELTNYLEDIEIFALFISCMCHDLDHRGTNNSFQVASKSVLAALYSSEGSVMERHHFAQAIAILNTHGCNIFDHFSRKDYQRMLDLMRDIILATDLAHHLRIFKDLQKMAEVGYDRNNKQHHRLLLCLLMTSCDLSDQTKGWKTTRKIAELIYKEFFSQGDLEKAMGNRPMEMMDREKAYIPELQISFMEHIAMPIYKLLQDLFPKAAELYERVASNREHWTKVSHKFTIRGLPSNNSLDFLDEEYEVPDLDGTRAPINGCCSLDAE
T3 sequence (Q14432 whole entry): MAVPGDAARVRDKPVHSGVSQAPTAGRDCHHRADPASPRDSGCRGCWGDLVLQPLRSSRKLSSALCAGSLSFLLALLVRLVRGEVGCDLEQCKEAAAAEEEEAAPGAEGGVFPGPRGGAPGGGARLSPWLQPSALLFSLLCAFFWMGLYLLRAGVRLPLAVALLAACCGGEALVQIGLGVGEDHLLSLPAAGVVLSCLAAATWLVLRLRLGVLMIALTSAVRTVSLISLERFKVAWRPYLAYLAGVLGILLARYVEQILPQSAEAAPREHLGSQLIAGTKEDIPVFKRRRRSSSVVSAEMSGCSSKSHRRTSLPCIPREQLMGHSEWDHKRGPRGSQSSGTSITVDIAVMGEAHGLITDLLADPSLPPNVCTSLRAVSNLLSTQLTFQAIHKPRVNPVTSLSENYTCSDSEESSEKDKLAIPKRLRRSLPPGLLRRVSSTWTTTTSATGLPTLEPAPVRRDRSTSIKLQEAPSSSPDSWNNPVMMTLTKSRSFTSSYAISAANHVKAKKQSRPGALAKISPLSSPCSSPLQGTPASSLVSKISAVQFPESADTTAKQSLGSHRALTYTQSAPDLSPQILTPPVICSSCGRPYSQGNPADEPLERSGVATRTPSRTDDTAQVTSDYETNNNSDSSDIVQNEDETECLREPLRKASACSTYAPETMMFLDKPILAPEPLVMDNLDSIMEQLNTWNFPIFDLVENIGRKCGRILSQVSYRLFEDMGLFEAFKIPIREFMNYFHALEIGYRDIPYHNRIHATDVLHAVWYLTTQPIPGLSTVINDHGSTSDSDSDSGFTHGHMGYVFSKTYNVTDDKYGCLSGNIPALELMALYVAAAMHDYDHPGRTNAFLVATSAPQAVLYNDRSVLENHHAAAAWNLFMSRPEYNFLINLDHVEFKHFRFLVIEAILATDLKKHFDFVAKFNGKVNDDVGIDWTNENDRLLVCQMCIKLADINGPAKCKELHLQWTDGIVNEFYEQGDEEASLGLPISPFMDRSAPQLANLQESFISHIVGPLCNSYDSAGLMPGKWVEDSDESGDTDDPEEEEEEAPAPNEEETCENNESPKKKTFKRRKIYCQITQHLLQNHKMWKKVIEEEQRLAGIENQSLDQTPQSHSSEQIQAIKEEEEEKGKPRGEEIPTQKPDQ

SMILES | inhibition at 100 µM [1] | % Inhibition of PDE4 [2] | inhibition at 100 µM [3] | % Inhibition of PDE1 [4] | inhibition at 100 µM [5] | % Inhibition of PDE6 [6]
Cn1cc([S+](C)[O-])c(=O)c2ccc(F)cc21 (racemic) [racemic mixture of flosequinan, 7-fluoro-1-methyl-3-methylsulfinyl-4-quinolone, reference compound] | 11% | 24% | 18% | 31% | – | –
Cn1cc([S@@+](C)[O-])c(=O)c2ccc(F)cc21 [(+)-flosequinan, (R)-(+)-7-fluoro-1-methyl-3-methylsulfinyl-4-quinolone] | 17% | 6% | 18% | 28% | 32% | 22%
Cn1cc([S@+](C)[O-])c(=O)c2ccc(F)cc21 [(−)-flosequinan, (S)-(−)-7-fluoro-1-methyl-3-methylsulfinyl-4-quinolone] | 10% | 1% | 13% | 11% | 5% | –
